These results are taken from patent US20090117613A1, “Method for redox reaction using an old yellow enzyme” (priority 2007, published 2009).

Assay type in all cases: binding
The target of assay [1] is T1, Geobacillus kaustophilus Old Yellow Enzyme (GkOYE, YP—148185.1), wild type (Geobacillus kaustophilus, UniProt Q5KXG9).
T1 construct: made in house; host or cells: E. coli DH5α
T1 sequence (Q5KXG9 1-340): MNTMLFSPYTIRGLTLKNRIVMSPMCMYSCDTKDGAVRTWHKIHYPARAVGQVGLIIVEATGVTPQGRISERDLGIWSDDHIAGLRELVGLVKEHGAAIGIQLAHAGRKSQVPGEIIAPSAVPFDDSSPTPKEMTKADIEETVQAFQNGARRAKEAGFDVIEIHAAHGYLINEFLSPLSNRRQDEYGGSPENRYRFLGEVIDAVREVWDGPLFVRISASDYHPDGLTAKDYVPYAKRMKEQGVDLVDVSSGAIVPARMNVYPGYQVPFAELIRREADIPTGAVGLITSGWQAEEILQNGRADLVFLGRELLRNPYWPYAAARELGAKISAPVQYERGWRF
Briefly: Titration of wild type GkOYE with pHBA.
Excerpt: (§1) Mutants of GkOYE (Y28F, H164A, H167A; H164A/H167A; 2 clones each) were transformed into and expressed in E. coli DH5alpha.

The target in assay [2] is T2, Geobacillus kaustophilus Old Yellow Enzyme (GkOYE, YP—148185.1) mutant H164A (Geobacillus kaustophilus, UniProt Q5KXG9, H164A).
T2 construct: made in house; host or cells: E. coli DH5alpha
In words: Titration of GkOYE mutant H164A with pHBA.
Excerpt: as §1

In assay [3] the target is T3, Geobacillus kaustophilus Old Yellow Enzyme (GkOYE, YP—148185.1) mutant H167A (Geobacillus kaustophilus, UniProt Q5KXG9, H167A).
T3 construct: made in house; host or cells: E. coli DH5alpha
Briefly: Titration of GkOYE mutant H167A with pHBA.
Excerpt: as §1

The target in assay [4] is T4, Geobacillus kaustophilus Old Yellow Enzyme (GkOYE, YP—148185.1) mutant H164A/H167A (Geobacillus kaustophilus, UniProt Q5KXG9, H164A/H167A).
T4 construct: made in house; host or cells: E. coli DH5alpha
Briefly: Titration of GkOYE double mutant H164A/H167A with pHBA.
Excerpt: as §1

The target of assay [5] is T5, Geobacillus kaustophilus Old Yellow Enzyme (GkOYE, YP—148185.1) mutant Y28F (Geobacillus kaustophilus, UniProt Q5KXG9, Y28F).
T5 construct: made in house; host or cells: E. coli DH5alpha
Briefly: Titration of GkOYE mutant Y28F with pHBA.
Excerpt: as §1

SMILES strings stand for the structures.

T3 sequence (Q5KXG9 whole entry H167A): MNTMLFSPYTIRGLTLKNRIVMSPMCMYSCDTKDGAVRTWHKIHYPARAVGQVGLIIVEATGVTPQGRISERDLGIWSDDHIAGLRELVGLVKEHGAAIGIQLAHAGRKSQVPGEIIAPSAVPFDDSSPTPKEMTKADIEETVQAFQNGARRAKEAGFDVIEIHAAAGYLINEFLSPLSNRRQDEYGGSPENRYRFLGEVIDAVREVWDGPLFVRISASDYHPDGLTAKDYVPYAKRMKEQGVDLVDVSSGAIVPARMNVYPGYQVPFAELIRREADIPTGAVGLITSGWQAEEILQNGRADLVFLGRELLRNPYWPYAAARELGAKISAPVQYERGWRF
T4 sequence (Q5KXG9 whole entry H164A/H167A): as the sequence (Q5KXG9 whole entry H167A) above, with H164A counted along it
T5 sequence (Q5KXG9 whole entry Y28F): as the sequence (Q5KXG9 whole entry H167A) above, with Y28F, A167H counted along it
T2 sequence (Q5KXG9 whole entry H164A): as the sequence (Q5KXG9 whole entry H167A) above, with H164A, A167H counted along it

With `O=Cc1ccc(O)cc1` [pHBA], the Kd in assay [1] is 3.1 µM; in assay [2], 1000 to 10000 µM; in assay [3], 1000 to 10000 µM; in assay [4], 1000 to 10000 µM; in assay [5] it was 1000 to 10000 µM.

One may read the Kd as the constant that tells how readily two partners part at equilibrium. Low readings indicate a tighter complex, high ones a looser complex.
